Results from EPA's ToxRefDB 2.

Tests used:
mouse [1] = details: Carcinogenicity, b6c3f1, Oral, Gavage/Intubation, dose end: 18 month, group: systemic
rat [2] = details: Prenatal developmental toxicity study, fischer, Dermal, Topical, dose end: 15 GD, group: maternal
rat [3] = details: Carcinogenicity, fischer, Oral, Gavage/Intubation, dose end: 24 month, group: systemic
rat [4] = details: Combined chronic toxicity/carcinogenicity, other, Oral, Feed, dose end: 2 year, group: systemic
rat [5] = details: Subchronic oral toxicity in rodents, wistar, Feed, dose end: 13 week, group: systemic, systemic / clinical chemistry / [other] / [other] + systemic / clinical chemistry / alkaline phosphatase (alp/alk) / alkaline phosphatase (…
rat [6] = details: Combined chronic toxicity/carcinogenicity, wistar, Oral, Feed, dose end: 2 year, group: systemic
mouse [7] = details: Subchronic oral toxicity in rodents, other, Feed, dose end: 13 week, group: systemic
rat [8] = details: Multigenerational reproductive toxicity study, sprague dawley, Oral, Feed, dose end: 2 generation
mouse [9] = details: Carcinogenicity; other; Oral; Feed; dose end: 24 month; group: systemic; systemic / clinical chemistry / alkaline phosphatase (alp/alk) / alkaline phosphatase (alp/alk) + systemic / organ weight / heart / nos + …
dog [10] = details: Chronic toxicity, beagle, Oral, Feed, dose end: 15 month, group: systemic
mouse [11] = details: Carcinogenicity, other, Oral, Feed, dose end: 18 month, group: systemic
dog [12] = details: Chronic toxicity; beagle; Oral; Capsule; dose end: 12 month; group: systemic; systemic / in life observation / clinical signs / fur (altered appearance) + systemic / in life observation / clinical signs / skin …
dog [13] = details: Subchronic oral toxicity in nonrodent, beagle, Capsule, dose end: 91 day, group: systemic
rabbit = details: Prenatal developmental toxicity study, other, Oral, Gavage/Intubation, dose end: 19 GD
rat [14] = details: Multigenerational reproductive toxicity study, other, Oral, Feed, dose end: 2 generation
rat [15] = details: Combined chronic toxicity/carcinogenicity, other, Oral, Feed, dose end: 2 year, group: systemic; remark: listed apart in the source
rat [16] = details: Subchronic oral toxicity in rodents, other, Feed, dose end: 3 month, group: systemic
[17] = systemic / organ weight / testes / relative to body weight
[18] = systemic / organ weight / testes / relative to body weight + systemic / pathology microscopic / liver / carcinoma + systemic / hematology / …
[19] = systemic / in life observation / clinical signs / scabbing
[20] = systemic / in life observation / body weight / body weight gain + systemic / in life observation / clinical signs / labored respiration + …
[21] = systemic / organ weight / stomach / relative to body weight + systemic / in life observation / body weight / body weight gain
[22] = systemic / pathology microscopic / lung / cholesterol cleft(s) + systemic / pathology microscopic / lung / foam cell aggregation
[23] = systemic / pathology microscopic / lung / cholesterol cleft(s) + systemic / pathology microscopic / lung / foam cell aggregation + systemic…
[24] = systemic / clinical chemistry / albumin / albumin + systemic / clinical chemistry / alkaline phosphatase (alp/alk) / alkaline phosphatase (…
[25] = systemic / pathology microscopic / liver / necrosis
[26] = systemic / pathology microscopic / liver / necrosis + systemic / clinical chemistry / [other] / [other] + systemic / pathology microscopic…
[27] = group: offspring, developmental / developmental landmark / eye opening / eye opening + developmental / developmental landmark / incisor eruption / incisor …
[28] = group: offspring, systemic / organ weight / adrenal gland / absolute
[29] = group: parental, systemic / organ weight / uterus / absolute
[30] = systemic / pathology gross / liver / accentuated lobular pattern + systemic / pathology microscopic / liver / fatty change
[31] = systemic / pathology gross / liver / accentuated lobular pattern + systemic / pathology microscopic / liver / fatty change + systemic / …
[32] = systemic / in life observation / body weight / body weight + systemic / in life observation / body weight / body weight gain
[33] = systemic / in life observation / body weight / body weight + systemic / in life observation / body weight / body weight gain + systemic / …
[34] = systemic / in life observation / clinical signs / vomitting + systemic / organ weight / liver / relative to body weight + systemic / …
[35] = group: developmental, developmental / developmental malformation / bone / fused
[36] = group: maternal, systemic / in life observation / body weight / body weight gain + systemic / in life observation / food consumption / food consumption + …
[37] = group: offspring, systemic / in life observation / body weight / offspring (pup) weight
[38] = group: offspring, systemic / in life observation / body weight / offspring (pup) weight + developmental / developmental landmark / eye opening / eye opening
[39] = group: parental, systemic / pathology microscopic / kidney / pigmentation + systemic / pathology microscopic / spleen / erythrophagocytosis
[40] = group: parental, systemic / pathology microscopic / kidney / pigmentation + systemic / pathology microscopic / spleen / erythrophagocytosis + systemic / in …
[41] = systemic / in life observation / body weight / body weight + systemic / in life observation / body weight / body weight gain + systemic / in…
[42] = systemic / in life observation / body weight / body weight + systemic / pathology microscopic / liver / hypertrophy + systemic / pathology …

Structure (SMILES): CCCCC(CC)CO (configuration not stated) [2-Ethyl-1-hexanol]
- LEL (mouse [1]; [17]): 50 mg/kg/day
- NEL (mouse [1]; [17]): < 50 mg/kg/day
- LOAEL (mouse [1]; [18]): > 750 mg/kg/day
- NOAEL (mouse [1]; [18]): ≥ 750 mg/kg/day
- LOAEL (rat [2]; systemic / in life observation / clinical signs / erythema + systemic / in life observation / clinical signs / scabbing + systemic / …): 840 mg/kg/day
- LEL (rat [2]; [19]): 252 mg/kg/day
- NEL (rat [2]; [19]): < 252 mg/kg/day
- LOAEL (rat [3]; [20]): > 500 mg/kg/day
- NOAEL (rat [3]; [20]): ≥ 500 mg/kg/day
- LEL (rat [3]; [21]): 50 mg/kg/day
- NEL (rat [3]; [21]): < 50 mg/kg/day

Structure (SMILES): COC(=O)C(C)Oc1ccc(Oc2ccc(Cl)cc2Cl)cc1 (configuration not stated) [Diclofop-methyl]
- LEL (rat [4]; [22]): 0.32 mg/kg/day
- LOAEL (rat [4]; [22]): 0.32 mg/kg/day
- NEL (rat [4]; [23]): 0.1 mg/kg/day
- NOAEL (rat [4]; [23]): 0.1 mg/kg/day
- LEL (rat [5]): 6.32 mg/kg/day
- LOAEL (rat [5]): 6.32 mg/kg/day
- NOAEL (rat [5]): 1.56 mg/kg/day
- LEL (rat [6]; [24]): 2.3 mg/kg/day
- LOAEL (rat [6]; [24]): 2.3 mg/kg/day
- NOAEL (rat [6]; [24]): 0.23 mg/kg/day
- NEL (rat [6]; systemic / hematology / hemoglobin (hgb) / hemoglobin (hgb) + systemic / hematology / erythrocyte (rbc) count differential / erythrocyte (…): 0.23 mg/kg/day
- LEL (mouse [7]; [25]): 0.3 mg/kg/day
- NEL (mouse [7]; [25]): < 0.3 mg/kg/day
- LOAEL (mouse [7]; [26]): 1 mg/kg/day
- NOAEL (mouse [7]; [26]): 0.3 mg/kg/day
- LOAEL (rat [8]; [27]): 7.3 mg/kg/day
- NOAEL (rat [8]; [27]): 2.1 mg/kg/day
- LEL (rat [8]; [28]): 0.9 mg/kg/day
- NEL (rat [8]; [28]): < 0.9 mg/kg/day
- LOAEL (rat [8]; group: parental, systemic / organ weight / liver / absolute + systemic / organ weight / liver / relative to body weight): 2.1 mg/kg/day
- NOAEL (rat [8]; group: parental, systemic / organ weight / liver / absolute + systemic / organ weight / liver / relative to body weight + systemic / organ weight / kidney / …): 0.7 mg/kg/day
- LEL (rat [8]; [29]): 0.9 mg/kg/day
- NEL (rat [8]; [29]): < 0.9 mg/kg/day
- LEL (mouse [9]): 0.76 mg/kg/day
- LOAEL (mouse [9]): 0.76 mg/kg/day
- NEL (mouse [9]): 0.24 mg/kg/day
- NOAEL (mouse [9]): 0.24 mg/kg/day
- LEL (dog [10]; [30]): 0.625 mg/kg/day
- LOAEL (dog [10]; [30]): 0.625 mg/kg/day
- NEL (dog [10]; [31]): 0.2 mg/kg/day
- NOAEL (dog [10]; [31]): 0.2 mg/kg/day

Structure (SMILES): CO/N=C(/C(=O)OC)c1ccccc1CO/N=C(\C)c1cccc(C(F)(F)F)c1 [Trifloxystrobin]
- LEL (mouse [11]; [32]): 35.7 mg/kg/day
- LOAEL (mouse [11]; [32]): 35.7 mg/kg/day
- NEL (mouse [11]; [33]): 3.51 mg/kg/day
- NOAEL (mouse [11]; [33]): 3.51 mg/kg/day
- LEL (dog [12]): 50 mg/kg/day
- LOAEL (dog [12]): 50 mg/kg/day
- NEL (dog [12]): 5 mg/kg/day
- NOAEL (dog [12]): 5 mg/kg/day
- LEL (dog [13]; systemic / clinical chemistry / bilirubin / total bilirubin): 30 mg/kg/day
- LOAEL (dog [13]; [34]): 150 mg/kg/day
- NEL (dog [13]; [34]): 5 mg/kg/day
- NOAEL (dog [13]; [34]): 30 mg/kg/day
- LEL (rabbit; [35]): 500 mg/kg/day
- LOAEL (rabbit; [35]): 500 mg/kg/day
- NEL (rabbit; [35]): 250 mg/kg/day
- NOAEL (rabbit; [35]): 250 mg/kg/day
- LEL (rabbit; [36]): 50 mg/kg/day
- LOAEL (rabbit; [36]): 50 mg/kg/day
- NEL (rabbit; [36]): 10 mg/kg/day
- NOAEL (rabbit; [36]): 10 mg/kg/day
- LEL (rat [14]; [37]): 65.5 mg/kg/day
- LOAEL (rat [14]; [37]): 65.5 mg/kg/day
- NEL (rat [14]; [38]): 4.2 mg/kg/day
- NOAEL (rat [14]; [38]): 4.2 mg/kg/day
- LEL (rat [14]; [39]): 55.3 mg/kg/day
- LOAEL (rat [14]; [39]): 55.3 mg/kg/day
- NEL (rat [14]; [40]): 3.8 mg/kg/day
- NOAEL (rat [14]; [40]): 3.8 mg/kg/day
- LEL (rat [15]; [32]): 29.7 mg/kg/day
- LOAEL (rat [15]; [32]): 29.7 mg/kg/day
- NEL (rat [15]; [41]): 9.81 mg/kg/day
- NOAEL (rat [15]; [41]): 9.81 mg/kg/day
- NEL (rat [16]; systemic / clinical chemistry / urea nitrogen / urea + systemic / urinalysis / ph / ph + systemic / clinical chemistry / glucose / glucose…): 618 mg/kg/day
- LOAEL (rat [16]; [42]): 127 mg/kg/day
- NOAEL (rat [16]; [42]): 30.6 mg/kg/day
